According to patent publication US12441768B2, “Compositions and methods for treating endometriosis” (EndoMet Biosciences, Inc., priority 2018, dated 2025):
Where a SMILES comes first, the peptide text is derived from it. The star is where a group is joined. Bn = c1ccc(C*)cc1

Legend:
[1] = % Viability non-Wnt responsive cells
[2] = biological target: Wnt-responsive promoter (TCF/LEF); experiment: Wnt-dependent luciferase reporter assay; format: cell-based, murine
In short: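 Murine 3T3 fibroblasts carrying a TCF/LEF-driven luciferase reporter, stimulated with Wnt3a in the presence of increasing peptide concentrations or vehicle. Luminescence inhibition gave EC50 values in uM.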

β-catenin = biological target: T1, β-catenin (Homo sapiens, UniProt P35222); experiment: KD50 measurement using competitive fluorescence polarization (FP) with labelled TCF4; format: binding; conditions: fluorescence polarization, β-catenin; for Kd: read-out: β-Cat FP KD
T1 sequence (P35222 1-781): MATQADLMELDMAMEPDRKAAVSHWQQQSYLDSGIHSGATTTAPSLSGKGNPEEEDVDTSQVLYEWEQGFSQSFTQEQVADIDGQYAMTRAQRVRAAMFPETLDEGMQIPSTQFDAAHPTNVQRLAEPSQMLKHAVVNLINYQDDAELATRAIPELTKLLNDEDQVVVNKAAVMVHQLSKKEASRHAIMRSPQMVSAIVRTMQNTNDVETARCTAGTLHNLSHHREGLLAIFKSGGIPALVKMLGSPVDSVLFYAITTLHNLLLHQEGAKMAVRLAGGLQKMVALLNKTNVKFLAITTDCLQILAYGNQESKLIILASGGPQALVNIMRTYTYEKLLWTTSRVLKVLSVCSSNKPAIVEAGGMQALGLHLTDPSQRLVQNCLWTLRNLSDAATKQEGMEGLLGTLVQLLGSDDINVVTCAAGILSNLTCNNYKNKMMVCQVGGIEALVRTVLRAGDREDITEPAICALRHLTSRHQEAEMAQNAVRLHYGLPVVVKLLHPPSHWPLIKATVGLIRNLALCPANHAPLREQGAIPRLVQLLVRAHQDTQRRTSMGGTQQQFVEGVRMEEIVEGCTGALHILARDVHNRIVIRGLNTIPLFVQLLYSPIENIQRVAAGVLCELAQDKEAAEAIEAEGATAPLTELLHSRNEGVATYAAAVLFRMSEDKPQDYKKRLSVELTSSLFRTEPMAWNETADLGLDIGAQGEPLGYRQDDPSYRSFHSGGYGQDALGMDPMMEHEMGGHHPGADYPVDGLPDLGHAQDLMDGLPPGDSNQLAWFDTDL
In short: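 First, β-catenin at 100 nM is mixed with 5 nM labelled TCF4 at room temperature. Next, compound is added across serial dilutions (10 nM to 30 uM). Finally, fluorescence polarization is measured (ex 470 nm, em 520 nm); experiments are done three times.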

| EC50 [2] | β-Cat FP Hill slope (β-catenin) | Kd (β-catenin) | Structure (SMILES) | viability [1] |
| --- | --- | --- | --- | --- |
| 15 to 22.5 µM | 1.71 | 1 to 10 µM | CC[C@H](C)[C@H](NC(=O)[C@H](CC(C)C)NC(=O)[C@H](Cc1ccccc1)NC(=O)[C@@H](N)Cc1c[nH]c2ccccc12)C(=O)N[C@@H](CO)C(=O)N[C@H](C(=O)N[C@@H](Cc1c[nH]c2ccccc12)C(=O)O)[C@@H](C)O [compound 103] (H-WFLISTW-OH) | 102% |
| 7.5 to 15 µM | 3 | 1 to 10 µM | CCOC[C@H](NC(=O)[C@H](CO)NC(=O)[C@@H](NC(=O)[C@H](CC(C)C)NC(=O)[C@H](Cc1ccccc1)NC(=O)[C@@H](N)Cc1c[nH]c2ccccc12)[C@@H](C)CC)C(=O)N[C@@H](Cc1c[nH]c2ccccc12)C(=O)O [compound 104] (H-WFLISS(Et)W-OH) | 104% |
| 7.5 to 15 µM | 0.7 | 1 to 10 µM | CCOC[C@H](NC(=O)[C@H](CO)NC(=O)[C@@H](NC(=O)[C@H](CC(C)C)NC(=O)[C@H](Cc1ccccc1)NC(=O)[C@H](Cc1c[nH]c2ccccc12)NC(=O)[C@H](CCSC)NC(=O)[C@H](CCCNC(=N)N)NC(=O)[C@H](CO)NC(=O)[C@@H](N)CCSC)[C@@H](C)CC)C(=O)N[C@@H](Cc1c[nH]c2ccccc12)C(=O)O [compound 105] (H-MSRMWFLISS(Et)W-OH) | 96.8% |
| 15 to 22.5 µM | 0.7 | 1 to 10 µM | CC[C@H](C)[C@H](NC(=O)[C@H](CC(C)C)NC(=O)[C@H](Cc1ccccc1)NC(=O)[C@H](Cc1c[nH]c2ccccc12)NC(=O)[C@H](CCSC)NC(=O)[C@H](CCCNC(=N)N)NC(=O)[C@H](CO)NC(=O)[C@@H](N)CCSC)C(=O)N[C@@H](CO)C(=O)N[C@@H](COCc1ccccc1)C(=O)N[C@@H](Cc1c[nH]c2ccccc12)C(=O)O [compound 106] (H-MSRMWFLISS(Bn)W-OH) | 105% |
| 7.5 to 15 µM | 0.7 | 1 to 10 µM | CC[C@H](C)[C@H](NC(=O)[C@H](CC(C)C)NC(=O)[C@H](Cc1ccccc1)NC(=O)[C@H](Cc1c[nH]c2ccccc12)NC(=O)[C@@H](N)CCSC)C(=O)N[C@@H](CO)C(=O)N[C@@H](Cc1ccccc1)C(=O)N[C@@H](Cc1c[nH]c2ccccc12)C(N)=O [compound 107] (H-MWFLISFW-NH2) | 100% |
| 7.5 to 15 µM | 0.7 | 0.4 to 1 µM | CC[C@H](C)[C@H](NC(=O)[C@H](CC(C)C)NC(=O)[C@H](Cc1ccccc1)NC(=O)[C@H](Cc1c[nH]c2ccccc12)NC(=O)[C@@H](N)CCSC)C(=O)N[C@@H](CO)C(=O)N[C@@H](Cc1ccccc1)C(=O)N[C@@H](Cc1c[nH]c2ccccc12)C(=O)NCC(N)=O [compound 108] (H-MWFLISFWG-NH2) | 102% |
| 7.5 to 15 µM | 3 | 1 to 10 µM | CC[C@H](C)[C@H](NC(=O)[C@H](CC(C)C)NC(=O)[C@H](Cc1ccccc1)NC(=O)[C@@H](N)Cc1c[nH]c2ccccc12)C(=O)N[C@@H](CO)C(=O)N[C@@H](Cc1ccc(O)cc1)C(=O)N[C@@H](Cc1c[nH]c2ccccc12)C(=O)O [compound 109] (H-WFLISYW-OH) | 103% |
| 7.5 to 15 µM | 3 | 1 to 10 µM | CC[C@H](C)[C@H](NC(=O)[C@H](CC(C)C)NC(=O)[C@H](Cc1ccccc1)NC(=O)[C@@H](N)Cc1c[nH]c2ccccc12)C(=O)N[C@@H](CO)C(=O)N[C@@H](Cc1ccccc1)C(=O)N[C@@H](Cc1c[nH]c2ccccc12)C(=O)O [compound 110] (H-WFLISFW-OH) | 103% |
| 7.5 to 15 µM | 2.06 | 0.4 to 1 µM | CC[C@H](C)[C@H](NC(=O)[C@H](CC(C)C)NC(=O)[C@H](Cc1ccccc1)NC(=O)[C@H](Cc1c[nH]c2ccccc12)NC)C(=O)N[C@@H](CO)C(=O)N[C@@H](Cc1ccccc1)C(=O)N[C@@H](Cc1c[nH]c2ccccc12)C(=O)O [compound 111] (HELM PEPTIDE1{[meW].F.L.I.S.F.W}$$$$V2.0) | 99.8% |
| < 7.5 µM | 1.82 | 0.4 to 1 µM | CC[C@H](C)[C@H](NC(=O)[C@H](CC(C)C)NC(=O)[C@H](Cc1ccccc1)NC(=O)[C@H](Cc1c[nH]c2ccccc12)NC(=O)[C@@H](N)CCSC)C(=O)N[C@@H](CO)C(=O)N[C@@H](Cc1ccccc1)C(=O)N[C@@H](Cc1c[nH]c2ccccc12)C(=O)O [compound 112] (H-MWFLISFW-OH) | 103% |
| > 30 µM | 0.7 | 1 to 10 µM | CC[C@H](C)[C@H](NC(=O)[C@H](CC(C)C)NC(=O)[C@@H](NC(=O)[C@H](Cc1c[nH]c2ccccc12)NC(=O)[C@H](CCSC)NC(=O)[C@@H](N)CCCCN)[C@@H](C)CC)C(=O)N[C@@H](CS)C(=O)N[C@@H](Cc1ccccc1)C(=O)N[C@@H](Cc1c[nH]c2ccccc12)C(=O)NCC(=O)O [compound 113] (H-KMWILICFWG-OH) | 102% |
| < 7.5 µM | 0.7 | 1 to 10 µM | CC[C@H](C)[C@H](NC(=O)[C@H](CC(C)C)NC(=O)[C@@H](NC(=O)[C@H](Cc1c[nH]c2ccccc12)NC(=O)[C@H](CCSC)NC(=O)[C@@H](N)Cc1c[nH]cn1)[C@@H](C)CC)C(=O)N[C@@H](CS)C(=O)N[C@@H](Cc1ccccc1)C(=O)N[C@@H](Cc1c[nH]c2ccccc12)C(=O)NCC(=O)O [compound 114] (H-HMWILICFWG-OH) | 123% |
| 15 to 22.5 µM | 0.7 | 1 to 10 µM | CC[C@H](C)[C@H](NC(=O)[C@H](CC(C)C)NC(=O)[C@@H](NC(=O)[C@H](Cc1c[nH]c2ccccc12)NC(=O)[C@H](CCSC)NC(=O)[C@@H](N)CCCNC(=N)N)[C@@H](C)CC)C(=O)N[C@@H](CS)C(=O)N[C@@H](Cc1ccccc1)C(=O)N[C@@H](Cc1c[nH]c2ccccc12)C(=O)NCC(=O)O [compound 115] (H-RMWILICFWG-OH) | 116% |
| < 7.5 µM | 0.72 | 0.4 to 1 µM | CC[C@H](C)[C@H](NC(=O)[C@H](CC(C)C)NC(=O)[C@@H](NC(=O)[C@H](Cc1c[nH]c2ccccc12)NC(=O)[C@@H](N)CCSC)[C@@H](C)CC)C(=O)N[C@@H](CS)C(=O)N[C@@H](Cc1ccccc1)C(=O)N[C@@H](Cc1c[nH]c2ccccc12)C(=O)NCC(=O)O [compound 116] (H-MWILICFWG-OH) | 123% |
| 15 to 22.5 µM | – | > 30 µM | CC[C@H](C)[C@H](NC(=O)[C@H](CC(C)C)NC(=O)[C@@H](NC(=O)[C@H](Cc1c[nH]c2ccccc12)NC(=O)[C@@H](N)CCCCN)[C@@H](C)CC)C(=O)N[C@@H](CS)C(=O)N[C@@H](Cc1ccccc1)C(=O)N[C@@H](Cc1c[nH]c2ccccc12)C(=O)NCC(=O)O [compound 117] (H-KWILICFWG-OH) | 138% |
| < 7.5 µM | – | > 30 µM | CC[C@H](C)[C@H](NC(=O)[C@H](CC(C)C)NC(=O)[C@@H](NC(=O)[C@H](Cc1c[nH]c2ccccc12)NC(=O)[C@@H](N)Cc1c[nH]cn1)[C@@H](C)CC)C(=O)N[C@@H](CS)C(=O)N[C@@H](Cc1ccccc1)C(=O)N[C@@H](Cc1c[nH]c2ccccc12)C(=O)NCC(=O)O [compound 118] (H-HWILICFWG-OH) | 99.9% |
| 7.5 to 15 µM | 0.7 | 1 to 10 µM | CC[C@H](C)[C@H](NC(=O)[C@H](CC(C)C)NC(=O)[C@@H](NC(=O)[C@H](Cc1c[nH]c2ccccc12)NC(=O)[C@@H](N)CCCNC(=N)N)[C@@H](C)CC)C(=O)N[C@@H](CS)C(=O)N[C@@H](Cc1ccccc1)C(=O)N[C@@H](Cc1c[nH]c2ccccc12)C(=O)NCC(=O)O [compound 119] (H-RWILICFWG-OH) | 143% |
| < 7.5 µM | – | > 30 µM | CC[C@H](C)[C@@H]1NC(=O)[C@H](CC(C)C)NC(=O)[C@H]([C@@H](C)CC)NC(=O)[C@H](Cc2c[nH]c3ccccc23)NC(=O)[C@@H](N)CCCCNC(=O)C[C@@H](C(=O)O)NC(=O)[C@H](Cc2c[nH]c3ccccc23)NC(=O)[C@H](Cc2ccccc2)NC(=O)[C@H](CS)NC1=O [compound 120] (HELM PEPTIDE1{K.W.I.L.I.C.F.W.D}$PEPTIDE1,PEPTIDE1,1:R3-9:R3$$$V2.0) | 123% |
